Structure (SMILES)	melting point
CCOC(=O)c1c(C)nc(S)c(N)c1NCCCN(C)C	110 to 112 °C
Cc1cccc(CSCCNC(=O)c2c(Cl)cccc2Cl)c1	56 to 57 °C
C=CCc1cc(C2=NNC(=O)CC2)ccc1O	240 to 244 °C
COc1cc2nc(N3CCN(c4nc5ccccc5s4)CC3)nc(N)c2cc1OC	242 to 245 °C
CC(C)CN1C(=O)C2=C3SC(S(N)(=O)=O)=CC1CC(C2)S3(=O)=O (stereo not drawn)	239 to 241 °C
CN(C)C(=O)N(C(=O)Nc1ccccc1)c1ccccc1	105 to 107 °C
COc1ccccc1Cn1c(=O)c2c(N3CCN(C)CC3)cc(Cl)cc2n(Cc2ccccc2)c1=O	91 to 96 °C
O=c1[nH]c2ccsc2c(=O)n1CCN1CCN(c2ccccc2Cl)CC1	193 to 196 °C
N#Cc1ccc(N2C(=O)NC3(CCSCC3)C2=O)cc1C(F)(F)F	209 to 210 °C
Cc1cc(-c2cc(CBr)c(=O)n(Cc3ccccc3Cl)n2)ccc1F	113 to 115 °C
COc1ccc([C@H]2O[C@](O[Si](C)(C)C)(C(F)(F)F)C(C)(C)N2C(=O)c2ccccc2)cc1 (racemic)	120 to 123 °C
CCCc1ncc(/C=C(\Cc2cccs2)c2nnn[nH]2)n1Cc1ccccc1Cl	174 to 175 °C
O=S1CCN(c2nc(N3CCNCC3)cc3c(F)cccc23)CC1	213 to 215 °C
O=c1[nH]nc2ccc(S)nn12	> 300 °C
CCOC(=O)CC1COc2c(OC)ccc(C(=O)Nc3ccccc3)c21 (stereo not drawn)	93 to 95 °C
Cc1ccc(NC(=O)c2ccccc2N)cc1C(F)(F)F	138 to 140 °C
Nc1nc(-c2ccc(C(=O)N3CCN(S(=O)(=O)c4ccc5cc(Br)ccc5c4)CC3)cc2)c[nH]1	274 to 275 °C
CCn1c2s[nH]c(=O)c2c(=O)c2cc(F)c(F)c(OC(F)F)c21	211 to 213 °C
O=c1[nH]ncc2[nH]c(-c3ccc(OC(F)F)c(OC4CC4)c3)c(Cl)c12	281 to 283 °C
CC(C)(C)c1cc(N(C(=O)CCC(=O)O)c2ccc(OC(=O)c3ccccc3)cc2)cc(C(C)(C)C)c1O	131 to 132 °C
Nc1nc(Nc2ccccc2)sc1C(=O)c1c(Cl)cccc1Cl	245 to 246 °C

Structure (SMILES)	melting point
OCCn1cnc2c(O)nc3ccccc3c21	> 300 °C
CC(C(=O)O)c1cccc(NC(=O)NC2N=C(c3ccccc3F)c3ccccc3N(CC(=O)N3CC4CCC(CC4)C3)C2=O)c1 (racemic)	187 to 204 °C
Cn1cc(-c2ccccc2)c(=O)c(-c2ccc(-c3ccccc3)cc2)c1	186 to 190 °C
CC1(C)OC(C=Cc2cccnc2)=CC1=O	68 to 70 °C
CCCCOc1c(CO)n(CC(C)C)c(=O)c2ccc(OCc3ccccc3)cc12	90 to 91 °C
C#CCOC(=O)c1cc(Br)c(O)c(OC)c1	121 to 122 °C
N#Cc1c(N)nc2ccc(N3CCOCC3)cc2c1NCc1ccccc1	202 °C
O=C(Nc1nc(=O)n(S(=O)(=O)c2ccc(Cl)cc2)cc1F)c1ccc(Cl)cc1	169 to 172 °C
O=C(Cc1ccc(Cl)cc1)NCc1cccc2c1C(=O)N(C1CCC(=O)NC1=O)C2=O (stereo not drawn)	243 to 245 °C
COc1ccc(-c2ccc([N+](=O)[O-])cc2)cc1OC1CC2CCC1C2 (stereo not drawn)	134 to 135 °C
CCOc1c(Br)cc(C(C)(C)C)cc1C(C)(C)C	55 to 56 °C
Cn1ncnc1COc1nn2c(-c3ccccc3F)nnc2cc1C(F)(F)F	123 to 126 °C
CCc1c(C(C#N)c2cc(C)cc(C)c2)[nH]c(=O)[nH]c1=O (stereo not drawn)	105 to 107 °C
COc1ccccc1CN1C(=O)C2CCCC2N(C(=O)CN2C(=O)c3ccccc3C2=O)c2ccccc21 (stereo not drawn)	261 to 272 °C
O=C(NCc1ccc(Cl)cc1)c1cnc2c(F)c(Oc3ccc(CO)cc3)c(F)cc2c1O	235 to 240 °C
CC(=O)c1ccc(Oc2ccc(I)cc2)cc1	99 to 101 °C
O=C(Cc1ccccn1)c1nc2ccccc2[nH]1	202 °C
CC(=O)SCC(=Cc1ccc(Oc2ccccc2)cc1)C(=O)NCCC(=O)OCc1ccccc1	79 °C
Cc1cc2c(-c3ccccc3)c3n(c(=O)c2cc1C)CCCC3O (stereo not drawn)	210 to 212 °C
C#CC1(O)CCC2C3CC(C)C4=CC(=O)CCC4C3CCC21CC (stereo not drawn)	148 to 151 °C
O=C(c1cccc(Cc2ccc(=O)[nH]n2)c1)c1c(Cl)cc(Cl)cc1Cl	149 to 151 °C

Structure (SMILES)	melting point
CC(C)CCc1ccc(C=CC(O)=S)cc1	132 to 133 °C
COc1ccc(C=CC(=O)NCCc2ccc(I)c(S(N)(=O)=O)c2)c(OC)c1	180 °C
COc1ccc(CC(C)CC(=O)O)c(C(C)C)c1OC (stereo not drawn)	100 to 101 °C
CS(=O)(=O)c1ccc(C2=C(c3ccccc3)C(=O)C2)cc1	139 to 140 °C
O=C1CCC2=C1C(c1ccc(F)c(C(F)(F)F)c1)C1=C(CCS1)N2 (stereo not drawn)	254 °C
CCc1cc(OC)c(C=C(C)[N+](=O)[O-])cc1OC	63 to 64 °C
O=C(Nc1cn(C2CCCCO2)nc1C(=O)NCCCO)c1ccccn1 (stereo not drawn)	139 to 140 °C
CCOC(=O)c1cc2c(C)c(C)cc(N(CC)S(=O)(=O)c3cccs3)c2[nH]1	134 to 135 °C
CCCCc1oc2ccccc2c1C(=O)NCc1ccc2c(-c3ccc(C)cc3)c(OCc3nnn[nH]3)ccc2c1	162 to 166 °C
Oc1ccc(C2(c3ccc(O)cc3)CCCCC2)cc1	181 to 182 °C
Cc1ccc(O)c(NCCCN2CCN(C(c3ccccc3)c3ccccc3)CC2)c1	178 to 179 °C
COc1ccc(-n2ncc(C(=O)O)c2Cl)cc1	241 to 242 °C
CCOc1cncc(N2CCN3CCCC3C2)n1 (stereo not drawn)	101 to 102 °C
Cc1cc(-c2cc(C(F)(F)F)n3ncc(-c4nc(-c5ccc(N)nc5)no4)c3n2)ccc1C(F)(F)F	220 °C
CC(C)[C@H](N)C(=O)NC(Cc1ccccc1)C(O)C(Cc1ccccc1)NC(=O)[C@@H](NC(=O)OCc1ccccc1)C(C)C (stereo partly drawn)	126 to 127 °C
C=C(C#N)CCC(=O)O	26.5 to 27 °C
Oc1ccc(-c2cccc3sc4ccccc4c23)cc1	117 to 119 °C
CCOP(=O)(Cc1nnc2c(=O)[nH]c3c4ccccc4ccc3n12)OCC	195 to 197 °C
CCOC(=O)c1ccc2cc(N)ccn2c1=O	> 250 °C
N=C(Nc1ccc(CNC=Nc2cccs2)cc1)c1cccs1	200 to 201 °C

Other lines, results leading:

melting point	Structure (SMILES)
112 to 114 °C	Cc1cc(F)ccc1Nc1nc(N(C)c2ccccc2)c2cc(OCCN(C)C)ccc2n1
253 to 256 °C	COc1cc(-c2nc(-c3ccc(N(C)C)cc3)c(C)[nH]2)ccc1OC(C)=O
56 °C	CCn1ncc2c(Cl)c(CO)cnc21
354 to 355 °C	O=C(O)c1cccc(N2C(=O)c3cccc([N+](=O)[O-])c3C2=O)c1
195 to 197 °C	CC(Cc1cccc2ccccc12)(Cc1cccc2ccccc12)C(=O)NC(C)(Cc1c[nH]c2ccccc12)C(=O)O (stereo not drawn)
215 to 218 °C	COc1ccc(C2C(C#N)=C(N)Oc3c2ccc2cnccc32)cc1OC (stereo not drawn)
104 to 106 °C	Cc1ccnc(C2C(=O)CC(C(C)C)CC2=O)c1 (stereo not drawn)
161 °C	O=[N+]([O-])c1ccc(O)cc1SCCO
136 to 138 °C	C#CCn1nc(-c2ccc(SC)cc2)c(-c2ccc(F)cc2)c1C(F)(F)F
163 to 166 °C	COc1ccc(-c2cc(C)cn2-c2ccc(S(N)(=O)=O)cc2)cc1
233 to 235 °C	COCc1c(C(=O)OC(C)C)ncc2[nH]c3ccc(I)cc3c12
156 to 157 °C	CSc1sc(NC(=O)OC(C)(C)C)c(NC(=O)OC(C)(C)C)c1C#N
84 to 85 °C	COC(=O)c1cc2cc(OC(F)F)ccc2nc1C(=O)OC
69 to 74 °C	CCn1c2ccc(C)cc2c2c3ccccc3ccc21
170 to 174 °C	COc1cc(C(=O)N2Cc3ccc(C(=O)NCc4ccccc4)n3Cc3ccccc32)ccc1-c1ccccc1C
205 to 206 °C	O=c1nc(-c2ccncc2O)nc2n(C3CCCC3)[nH]c(C(F)(F)F)c1-2
122 to 123 °C	COc1ccc(OC)c2c1C(=O)C=C(SCCCCO)C2=O
208 to 210 °C	COCCOc1ccc(Nc2cc(Nc3ccc(F)c(Cl)c3)ncn2)cc1

melting point	Structure (SMILES)
148 to 149 °C	Cc1cc(Cl)c(C(=O)c2cc(C)c(C)cc2Cl)cc1C
166 to 167 °C	N#CCCn1cccc1C1=CC(=O)c2ncccc2C1=O
> 320 °C	Cc1nccc2[nH]c(=O)c(O)cc12
67 to 70 °C	CCOC(=O)c1sc2c(Br)cccc2c1C
256 °C	CS(=O)(=O)c1cccc(NC(=O)c2cnn3c(C(F)(F)F)cc(-c4ccc(F)c(F)c4)nc23)c1
222 to 225 °C	CC12CCC(C(=O)O)=CC1=CCC1C2CCC2(C)C(C(=O)c3ccccc3)CCC12 (stereo not drawn)
81 to 91 °C	CC(=O)OC(C(Oc1ccc(Cl)cc1)n1ccnc1)C(C)(C)C (stereo not drawn)
161 to 163 °C	CCCCN(Cc1ccc(-c2ccccc2-c2nnn[nH]2)cc1)c1nc(SC)ncc1C(=O)OCC
88 to 91 °C	CCCn1c(=O)c2c(ncn2CC(O)CO)n(CCC)c1=O (stereo not drawn)
152 to 154 °C	COC(=O)C1(CCCN2CCN(c3ccccc3)CC2)Sc2ccccc2CCC1O (stereo not drawn)
216 °C	Cc1cc(-c2cc(C(F)(F)F)nc(-c3cccc(-c4ccc(S(N)(=O)=O)s4)c3)n2)ccc1C(F)(F)F
135 to 137 °C	CC(C)=CC(=O)Nc1c(C(O)(C(F)(F)F)C(F)(F)F)ccc2ccccc12
167 to 169 °C	O=C1CNC(c2cc(Br)cc(-c3ccsc3)c2)=NN1CC(F)(F)F
165 to 167 °C	CCOC(=O)[C@@H]1[C@H](C)OC(=O)[C@@H]1NC(C)=O
236 to 237 °C	CN(C)Cc1ccc2nc(NC(=O)c3ccc(C(C)(C)C)cc3)cn2c1
115 °C	NC(=O)c1ccc(F)c2c1CC(N(CCCCc1c[nH]c3ccc(F)cc13)CC1CC1)CO2 (stereo not drawn)
133 to 135 °C	CC1(C)OCC(N(c2nc(Cl)nc(N(C3COC(C)(C)OC3)C3COC(C)(C)OC3)n2)C2COC(C)(C)OC2)CO1
248 to 251 °C	Cc1oc(-c2ccc(Cl)cc2)cc1C(=O)Nc1cc(Cl)ccc1-c1noc(=O)[nH]1

From a melting point compilation (Tetko et al.; mined from patent text by program, amines drawn as free bases though some values may be those of a salt)
